The values that follow come from publication PMC10207715, “Dual inhibition of IDO1/TDO2 enhances anti-tumor immunity in platinum-resistant non-small cell lung cancer” (Cancer & Metabolism, 2023).

Assay [1] addresses T1, indoleamine 2,3-dioxygenase-1 (IDO1) (Homo sapiens, UniProt P14902).
T1 construct: human IDO1 in expression vector F279-V5/hIDO1, stably transfected in LLC cells
The assay can be described thus: cellular kynurenine colorimetric assay in LLC-hIDO1 cells, […] h. The format is cell-based.

The target of assay [2] is T2, tryptophan 2,3-dioxygenase-2 (TDO2) (Homo sapiens, UniProt P48775).
T2 construct: full-length human TDO2, overexpressed in GL261 cells
T2 sequence (P48775 whole entry): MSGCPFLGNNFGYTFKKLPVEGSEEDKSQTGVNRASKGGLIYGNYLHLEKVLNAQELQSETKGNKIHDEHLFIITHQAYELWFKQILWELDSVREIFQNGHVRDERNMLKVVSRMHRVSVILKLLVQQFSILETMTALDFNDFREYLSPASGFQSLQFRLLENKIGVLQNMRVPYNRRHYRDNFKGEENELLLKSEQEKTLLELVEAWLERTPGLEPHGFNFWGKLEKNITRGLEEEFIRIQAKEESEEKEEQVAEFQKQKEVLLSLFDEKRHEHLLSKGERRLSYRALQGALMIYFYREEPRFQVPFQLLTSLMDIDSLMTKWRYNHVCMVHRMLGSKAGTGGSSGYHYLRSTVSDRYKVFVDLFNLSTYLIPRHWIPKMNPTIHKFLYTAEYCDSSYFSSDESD
Nature of the assay: cellular kynurenine colorimetric assay in GL261-hTDO2 cells, […] h. The format is cell-based.

T1 sequence (P14902 whole entry): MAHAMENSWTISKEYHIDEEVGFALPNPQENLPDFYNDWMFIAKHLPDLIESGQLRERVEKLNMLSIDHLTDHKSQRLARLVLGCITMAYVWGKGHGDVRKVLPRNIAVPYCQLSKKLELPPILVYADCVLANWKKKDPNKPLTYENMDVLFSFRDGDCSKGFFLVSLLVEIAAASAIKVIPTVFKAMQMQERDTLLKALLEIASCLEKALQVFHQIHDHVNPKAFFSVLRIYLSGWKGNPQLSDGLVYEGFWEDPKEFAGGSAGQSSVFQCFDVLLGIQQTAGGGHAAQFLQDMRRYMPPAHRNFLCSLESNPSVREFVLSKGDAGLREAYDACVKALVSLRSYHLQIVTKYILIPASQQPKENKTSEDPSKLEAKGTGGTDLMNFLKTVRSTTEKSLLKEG

In general, IC50 refers to the concentration that inhibits the measured activity by half. For AT-0174, the IC50 in assay [1] is 170 nM; in assay [2], 250 nM.
